Experiment [1] concerns acute myelocytic leukemia (AML) cell line MV4-11. Nature of the experiment: Oncology cell growth assay (3-day proliferation, CellTiter-Glo). In kind it is cell-based. The conditions noted are these: Homo sapiens, MV4-11 cells, 3000 cells/well, compounds listed under IC50 range headings, read-out: MV411 IC50 (gIC50, inhibition of proliferation). The method, boiled down:
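Luminescence from CellTiter-Glo served as the growth read-out after MV4-11 cells (3000/well) were cultured with compound for 72 hours. Final concentrations spanned 10 to 0.0045 μM in 3-fold steps. gIC50 values were derived by four-parameter logistic fitting relative to DMSO and cell-free controls.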

Experiment [2] deals with T1, BRD4 Bromodomain 2 (BRD4 BD2) (Homo sapiens, UniProt O60885).
T1 construct: 333-460 were cloned, expressed, and purified to homogeneity
Put plainly: AlphaScreen binding assay, BRD4 BD2. The conditions noted are these: His-tagged BRD4 BD2 100 nM, biotinylated H4 (1-21) K5/8/12/16 tetra-acetylated peptide 100 nM, compounds listed under IC50 range headings. An outline of the steps: (§1)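 Compound dilution series were mixed with His-tagged BRD4 bromodomain and biotinylated tetra-acetylated H4 (1-21) peptide at pH 7.3 (BD1 and peptide at 50 nM, BD2 and peptide at 100 nM). Donor and acceptor beads were then added, and plates were equilibrated at least 1 h before reading. IC50 values were fitted with a four-parameter logistic model.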
For orientation: Bead proximity is the source of the signal in Alpha formats.

Experiment [3] addresses T2, BRD4 Bromodomain 1 (BRD4 BD1) (Homo sapiens, UniProt O60885).
T2 construct: 44-168 and BRD4 BD2
Put plainly: AlphaScreen binding assay, BRD4 BD1. The conditions noted are these: His-tagged BRD4 BD1 50 nM, biotinylated H4 (1-21) K5/8/12/16 tetra-acetylated peptide 50 nM, compounds listed under IC50 range headings. The method, boiled down: as §1

Molecules are shown by their SMILES. Like-named read-outs stand apart in the source and are kept apart here.

IC50 data for 23 compounds are collected here from US10611750B2, “Tetrahydroquinoline compositions as bet bromodomain inhibitors” (FORMA Therapeutics, Inc., priority 2013, dated 2020).

Take `CC(=O)N1c2ccc(-c3cnn(C4CC4)c3)c(OCC(C)(C)F)c2CC[C@@H]1C` [I-67, (S)-1-(6-(1-cyclopropyl-1H-pyrazol-4-yl)-5-(2-fluoro-2-methylpropoxy)-2-methyl-3,4-dihydroquinolin-1 (2H)-yl)ethanone]: the IC50 in experiment [1] (MV4-11, 72 h) is below 500 nM; in experiment [2], below 50 nM; in experiment [3], 100 to 1000 nM.

With `COC(=O)N1c2ccc(-c3cnn(C4CCOCC4)c3)c(OC3CCC3)c2CC[C@@H]1C` [I-68, (S)-methyl 5-cyclobutoxy-2-methyl-6-(1-(tetrahydro-2H-pyran-4-yl)-1H-pyrazol-4-yl)-3,4-dihydroquinoline-1(2H)-carboxylate], the IC50 in experiment [1] (MV4-11, 72 h) was below 500 nM; in experiment [2], below 50 nM; in experiment [3], 100 to 1000 nM.

For `CC(=O)N1c2ccc(-c3cnn(C4CC4)c3)c(Oc3ncc4ccccc4n3)c2CC[C@@H]1C` [I-77, (S)-1-(6-(1-cyclopropyl-1H-pyrazol-4-yl)-2-methyl-5-(quinazolin-2-yloxy)-3,4-dihydroquinolin-1(2H)-yl)ethanone], the IC50 was below 500 nM in experiment [1] (MV4-11, 72 h); below 50 nM in experiment [2]; 100 to 1000 nM in experiment [3].

In the case of `CC(=O)N1c2ccc(-c3cnn(C4CC4)c3)c(Oc3nc4ccccc4o3)c2CC[C@@H]1C` [I-78, (S)-1-(5-(benzo[d]oxazol-2-yloxy)-6-(1-cyclopropyl-1H-pyrazol-4-yl)-2-methyl-3,4-dihydroquinolin-1(2H)-yl)ethanone], the IC50 in experiment [1] (MV4-11, 72 h) is below 500 nM; in experiment [2] it was 50 to 500 nM; in experiment [3] it was 100 to 1000 nM.

`CC(=O)N1c2ccc(-c3cnn(CCO)c3)c(Oc3ncccn3)c2CC[C@@H]1C` [I-80, (S)-1-(6-(1-(2-hydroxyethyl)-1H-pyrazol-4-yl)-2-methyl-5-(pyrimidin-2-yloxy)-3,4-dihydroquinolin-1 (2H)-yl)ethanone]: the IC50 in experiment [1] (MV4-11, 72 h) is below 500 nM; in experiment [2] it was below 50 nM; in experiment [3], 100 to 1000 nM.

As to `CC(=O)N1c2ccc(-c3cnn(C4CC4)c3)c(Oc3ncccc3C(N)=O)c2CC[C@@H]1C` [I-81, (S)-2-(1-acetyl-6-(1-cyclopropyl-1H-pyrazol-4-yl)-2-methyl-1,2,3,4-tetrahydroquinolin-5-yloxy)nicotinamide], the IC50 was below 500 nM in experiment [1] (MV4-11, 72 h); 50 to 500 nM in experiment [2]; 100 to 1000 nM in experiment [3].

On to `CC(=O)N1c2ccc(-c3cnn(C4CC4)c3)c(Oc3ncc4cn[nH]c4n3)c2CC[C@@H]1C` [I-82, (S)-1-(5-(1H-pyrazolo[3,4-d]pyrimidin-6-yloxy)-6-(1-cyclopropyl-1H-pyrazol-4-yl)-2-methyl-3,4-dihydroquinolin-1(2H)-yl)ethanone], for which the IC50 in experiment [1] (MV4-11, 72 h) lay in the range of 500 to 1000 nM; in experiment [2], 50 to 500 nM; in experiment [3], 1000 to 10000 nM.

For the compound `CC(=O)N1c2ccc(-c3cnn(C4CC4)c3)c(Oc3nccs3)c2CC[C@@H]1C` [I-83, (S)-1-(6-(1-cyclopropyl-1H-pyrazol-4-yl)-2-methyl-5-(thiazol-2-yloxy)-3,4-dihydroquinolin-1(2H)-yl)ethanone], the IC50 is below 500 nM in experiment [1] (MV4-11, 72 h); below 50 nM in experiment [2]; 1000 to 10000 nM in experiment [3].

For the compound `CC(=O)N1c2ccc(-c3cnn(C4CC4)c3)c(Oc3ncccc3C#N)c2CC[C@@H]1C` [I-84, (S)-2-(1-acetyl-6-(1-cyclopropyl-1H-pyrazol-4-yl)-2-methyl-1,2,3,4-tetrahydroquinolin-5-yloxy)nicotinonitrile], the IC50 in experiment [1] (MV4-11, 72 h) is below 500 nM; in experiment [2], below 50 nM; in experiment [3], 100 to 1000 nM.

For `CC(=O)N1c2ccc(-c3cnn(C4CC4)c3)c(Oc3ncccc3C(F)(F)F)c2CC[C@@H]1C` [I-86, (S)-1-(6-(1-cyclopropyl-1H-pyrazol-4-yl)-2-methyl-5-(3-(trifluoromethyl)pyridin-2-yloxy)-3,4-dihydroquinolin-1 (2H)-yl)ethanone], the IC50 is below 500 nM in experiment [1] (MV4-11, 72 h); below 50 nM in experiment [2]; 100 to 1000 nM in experiment [3].

Turning to `CC(=O)N1c2ccc(-c3cnn(C4CC4)c3)c(Oc3cnccn3)c2CC[C@@H]1C` [I-88, (S)-1-(6-(1-cyclopropyl-1H-pyrazol-4-yl)-2-methyl-5-(pyrazin-2-yloxy)-3,4-dihydroquinolin-1(2H)-yl)ethanone], the IC50 in experiment [1] (MV4-11, 72 h) was below 500 nM; in experiment [2], below 50 nM; in experiment [3] it was 100 to 1000 nM.

`CC(=O)N1c2ccc(-c3cnn(C4CC4)c3)c(Oc3ccccn3)c2CC[C@@H]1C` [I-89, (S)-1-(6-(1-cyclopropyl-1H-pyrazol-4-yl)-2-methyl-5-(pyridin-2-yloxy)-3,4-dihydroquinolin-1(2H)-yl)ethanone]: the IC50 in experiment [1] (MV4-11, 72 h) was below 500 nM; in experiment [2] it was 50 to 500 nM; in experiment [3] it was 100 to 1000 nM.

For the compound `CC(=O)N1c2ccc(-c3cnn(C4CC4)c3)c(Oc3ccc(C#N)nn3)c2CC[C@@H]1C` [I-91, (S)-6-(1-acetyl-6-(1-cyclopropyl-1H-pyrazol-4-yl)-2-methyl-1,2,3,4-tetrahydroquinolin-5-yloxy)pyridazine-3-carbonitrile], the IC50 was below 500 nM in experiment [1] (MV4-11, 72 h); 50 to 500 nM in experiment [2]; 100 to 1000 nM in experiment [3].

`CC(=O)N1c2ccc(-c3cnn(C4CC4)c3)c(Oc3ncc(C)cn3)c2CC[C@@H]1C` [I-92, (S)-1-(6-(1-cyclopropyl-1H-pyrazol-4-yl)-2-methyl-5-(5-methylpyrimidin-2-yloxy)-3,4-dihydroquinolin-1 (2H)-yl)ethanone]: the IC50 in experiment [1] (MV4-11, 72 h) is below 500 nM; in experiment [2], below 50 nM; in experiment [3] it was 100 to 1000 nM.

On to `CC(=O)N1c2ccc(-c3cnn(C4CC4)c3)c(Oc3ccnc(C(F)(F)F)n3)c2CC[C@@H]1C` [I-93, (S)-1-(6-(1-cyclopropyl-1H-pyrazol-4-yl)-2-methyl-5-(2-(trifluoromethyl)pyrimidin-4-yloxy)-3,4-dihydroquinolin-1(2H)-yl)ethanone], for which the IC50 in experiment [1] (MV4-11, 72 h) is below 500 nM; in experiment [2] it was 50 to 500 nM; in experiment [3] it was 100 to 1000 nM.

For `C[C@H]1CCc2c(ccc(-c3cnn(C4CCNCC4)c3)c2OC2CCC2)N1C(=O)C1CC1` [I-99, (2S)-5-cyclobutoxy-1-cyclopropanecarbonyl-2-methyl-6-[1-(piperidin-4-yl)-1H-pyrazol-4-yl]-1,2,3,4-tetrahydroquinoline], the IC50 in experiment [1] (MV4-11, 72 h) was below 500 nM; in experiment [2], below 50 nM; in experiment [3], 100 to 1000 nM.

For `CCCOc1c(-c2cnn(C3CCNCC3)c2)ccc2c1CC[C@H](C)N2C(=O)C1CC1` [I-100, (S)-cyclopropyl(2-methyl-6-(1-(piperidin-4-yl)-1H-pyrazol-4-yl)-5-propoxy-3,4-dihydroquinolin-1(2H)-yl)methanone], the IC50 in experiment [1] (MV4-11, 72 h) was below 500 nM; in experiment [2], below 50 nM; in experiment [3], 100 to 1000 nM.

Turning to `C[C@H]1CCc2c(ccc(-c3cnn(C4CNC4)c3)c2OC2CCC2)N1C(=O)C1CC1` [I-101, (S)-(6-(1-(azetidin-3-yl)-1H-pyrazol-4-yl)-5-cyclobutoxy-2-methyl-3,4-dihydroquinolin-1(2H)-yl)(cyclopropyl)methanone], the IC50 was below 500 nM in experiment [1] (MV4-11, 72 h); below 50 nM in experiment [2]; 100 to 1000 nM in experiment [3].

For the compound `CCCOc1c(-c2cnn(C3CNC3)c2)ccc2c1CC[C@H](C)N2C(=O)C1CC1` [I-102, (S)-(6-(1-(azetidin-3-yl)-1H-pyrazol-4-yl)-2-methyl-5-propoxy-3,4-dihydroquinolin-1(2H)-yl)(cyclopropyl)methanone], the IC50 in experiment [1] (MV4-11, 72 h) was below 500 nM; in experiment [2], below 50 nM; in experiment [3], 100 to 1000 nM.

As for `CCCOc1c(-c2cnn(C3CCNCC3)c2)ccc2c1CC[C@H](C)N2C(C)=O` [I-104, (S)-1-(2-methyl-6-(1-(piperidin-4-yl)-1H-pyrazol-4-yl)-5-propoxy-3,4-dihydroquinolin-1 (2H)-yl)ethanone], the IC50 in experiment [1] (MV4-11, 72 h) was below 500 nM; in experiment [2] it was below 50 nM; in experiment [3], below 100 nM.

As for `CCCOc1c(-c2cnn(C3CCNCC3)c2)ccc2c1CC[C@H](C)N2C(=O)OC` [I-107, (S)-methyl 2-methyl-6-(1-(piperidin-4-yl)-1H-pyrazol-4-yl)-5-propoxy-3,4-dihydroquinoline-1(2H)-carboxylate], the IC50 in experiment [1] (72 hours) is below 500 nM; in experiment [2], 50 to 500 nM; in experiment [3] it was 100 to 1000 nM.

With `COC(=O)N1c2ccc(-c3cnn(C4CCNC4)c3)c(OC3CCC3)c2CC[C@@H]1C` (stereo partly drawn) [I-108, (2S)-methyl 5-cyclobutoxy-2-methyl-6-(1-(pyrrolidin-3-yl)-1H-pyrazol-4-yl)-3,4-dihydroquinoline-1(2H)-carboxylate], the IC50 is below 500 nM in experiment [1] (MV4-11, 72 h); below 50 nM in experiment [2]; 100 to 1000 nM in experiment [3].

As to `CC(=O)N1c2ccc(-c3cnn(C4CC4)c3)c(OC3CC3)c2CC[C@@H]1C` [I-113, (S)-1-(5-cyclopropoxy-6-(1-cyclopropyl-1H-pyrazol-4-yl)-2-methyl-3,4-dihydroquinolin-1(2H)-yl)ethanone], the IC50 in experiment [1] (MV4-11, 72 h) is below 500 nM; in experiment [2], 50 to 500 nM; in experiment [3] it was 100 to 1000 nM.
